From patent US20070016978A1, “PLANTS HAVING AN ENHANCED RESISTANCE TO NECROTROPHIC PATHOGENS AND METHOD OF MAKING SAME” (priority 2005, published 2007)

Experiments:
[1] = tested on: Peronospora parasitica biotype Emco5; conditions: glycerol-treated npr1 plants, glycerol 72 h prior to inoculation
[2] = tested on: PR-1 gene; conditions: exogenous application on wt plants; cited from earlier work
[3] = tested on: 18:1 levels; assay: Leaf 18:1 content after glycerol application (GC); type: in vivo, Arabidopsis; conditions: wt and plants impaired in the SA signaling pathway, three days after glycerol application
Protocol: (§1) SA and SA glucoside (SAG) are extracted and measured from 0.2-0.3 g of fresh weight leaf tissue, as described in Chandra-Shekara et al., 2004. FA analysis is carried out as described in Dahmer et al., 1989; and He et al., 2002. Lipids are extracted as described in Welti et al., 2002. Lipid profiles and acyl group identification are carried out using an automated electrospray ionization-tandem mass spectrometry facility available at the Kansas Lipidomics Center.
(§2) JA treatments are carried out as described in Kachroo et al., 2001.
(§3) Ethidium bromide staining of rRNA used as a loading control. FIG. 3(D) is a graph showing growth of P. parasitica biotype Emco5 on various plant genotypes listed at the left. The Landsberg (Ler) ecotype used as the resistant control. […] The shade of each box indicates the severity of infection, based on the number of sporangiophores per cotyledon (see key at the right). FIG. 3(E) is a plot showing glycerol-induced changes in the 18:1 levels in leaf tissue of 4-week-old plants.

[4] = tested on: SA and SAG levels; assay: Endogenous SA and SAG levels in leaves of glycerol-treated plants; type: in vivo, Arabidopsis; conditions: for induction in SA levels / induction in the SAG levels: glycerol- versus water-treated, 50 mM glycerol
Protocol: as §1, §2, §3

[5] = tested on: C. higginsianum; assay: Growth of C. higginsianum in liquid Fries minimal medium; type: cell-based, Colletotrichum higginsianum; conditions: G3P added in minimal medium containing a preferred carbon source like sucrose or glycerol; 10 mM G3P, 5 days, 30° C.
Source text: (§4) Several lines of evidence point to G3P levels as being of primary importance. […] Secondly, the gli1 and gly1 plants, with lower levels of G3P, are slightly more susceptible to C. higginsianum.

[6] = tested on: C. higginsianum; assay: Anthracnose lesion development on Arabidopsis leaves infiltrated with G3P before infection; type: in vivo; conditions: infiltration of G3P into Arabidopsis leaves prior to infection
Protocol: as §4
Inoculation with Peronospora parasitica Emco5 is conducted as described in Kachroo et al., 2001. Inoculation with Colletotrichum higginssianum is carried out by spraying the spores at a concentration of […] and spot inoculating at a concentration of 104-105/ml. After inoculation, the plants are covered with a transparent plastic dome and kept in a growth chamber at 22° C., 65% relative humidity and 14 hour photoperiod. Infections are evaluated every day and scored for disease at 4-6 dpi. Inoculation with Pseudomonas syringae is conducted as described in Shah et al., 2001.

[7] = tested on: PDF1.2 gene; assay: PDF1.2 gene expression in response to JA (RNA gel blot); type: in vivo, Arabidopsis; conditions: ssi2 fad7 and ssi2 fad7 fad8 plants, 50 μM JA, 48 h post treatment
Protocol: Small-scale extraction of RNA from one or two leaves is performed in the TRIzol reagent (Invitrogen, Gaithersburg, Md.) following the manufacturer's instructions. Northern blot analysis and synthesis of random primed probes for PR-1, PR-2 and PDF1.2 are carried out as described in Kachroo et al., 2001.
as §2
FIGS. 5(A)-5(I) illustrate glycerol-mediated effects on mutants impaired in various fatty add desaturation (fad) steps and double mutant analysis of ssi2 in different fad backgrounds. […] RNA gel blot analysis was performed on […] of total RNA extracted from 4-week-old soil-grown plants. Ethidium bromide staining of rRNA was used as a loading control. […] The values presented are averages of three replicates. FIG. 5(D) is a plot showing glycerol-induced changes in the 18:1 levels in leaf tissue of four-week-old plants. The ssi2 gly1 and ssi2 act1 plants were used as controls. […] FIG. 5(F) comprises a series of microscopies of trypan blue-stained leaves from ssi2 and various ssi2 fad double- and triple-mutant plants. FIG. 5(G) illustrates expression of the PR-1 and PR-2 genes in wt, ssi2, and various ssi2 fad double and triple mutant plants. […] Samples were harvested 48 h post treatment and analyzed by RNA gel blot analysis performed on 7 μg of total RNA. […]

OCC(O)CO [glycerol]
reduction in the number of susceptible plants [1]: about 60%
PR-1 gene expression [2]: induction of PR-1 gene expression
leaf 18:1 levels [3]: drastic reduction in their 18:1 levels
induction in SA levels ([4]; Columbia-O (Col-O) plants): 13 fold
induction in the SAG levels ([4]; Columbia-O (Col-O) plants): 10 fold
induction in SA levels ([4]; Nossen (No) plants): 10 fold
induction in the SAG levels ([4]; Nossen (No) plants): 8 fold
SA levels upon glycerol treatment, lower than in wt plants ([4]; fad7 and fad7 fad8 plants versus glycerol-treated wt): 3 fold

O=P(O)(O)OCC(O)CO (centres unmarked) [G3P, glycerol-3-phosphate]
inhibition of fungal growth [5]: ~3 fold
necrosis triggered by the fungus at the site of entry [6]: significantly reduced necrosis

CC/C=C\C[C@H]1C(=O)CC[C@@H]1CC(=O)O [JA, jasmonic acid]
PDF1.2 expression [7]: basal level expression of PDF1.2
